# Assay results published in patent US20110313004A1, “DEUTERATED PYRIDINONES” (CONCERT PHARMACEUTICALS, INC., priority 2008, published 2011).
# Assay: Storage stability of the isolated compound at about −20° C.
# Assay type: physicochemical
# Settings: storage for approximately 2 weeks at about −20° C.
# Text: Compound 139 was synthesized in the same manner as Compound 151 with the exception that 4-fluoro-2,3,5,6-d4-aniline (98% atom % D, CDN Isotopes) was used in place of D p-toluidine-d9 in step 1. ^1H NMR (CDCl3): δ 7.44 (dd, J=2.5, 9.6, 1H), 7.31 (d, J=2.5, 1H), 6.67 (d, J=9.3, 1H). MS (M+H): 226.1.
# Compound 161 was synthesized in the same manner as Compound 101 (Example 1, Scheme 6, steps 1-3), except that 4-chloro-2,3,5,6-d4-aniline (98% atom % D, CDN Isotopes) was used in place of aniline in step 1. MS (M+H): 242.1.
# A solution of (ethyl carbonic) 1-(4-(methoxy-d3)phenyl-d4)-6-oxo-1,6-dihydropyridine-3-carboxylic anhydride 27 (464 mg, approximately. 1.43 mmol) in THF (14.8 mL) was cooled to 10° C. and NaBD4 (98 atom % D, Cambridge Isotopes Laboratories) (295 mg, 7.01 mmol) was added. To the resulting slurry was added MeOD (1.42 mL) via syringe pump at a rate of 0.015 mL/min. Upon completion, the reaction was diluted with MeOD and concentrated nearly to dryness on a rotary evaporator. This process was repeated twice. The resulting solid was suspended in CH2Cl2, silica gel was added, the slurry concentrated to dryness in vacuo, and the resulting solid was added to the top of a silica gel column. Purification via column chromatography on an ISCO instrument (0 to 10% MeOH in CH2Cl2) provided impure final product. A further purification by ISCO (50 to 100% EtOAc in hexanes) followed by a preparatory HPLC purification afforded 116 mg of the final product 156 in approximately 85% purity. ^1H NMR (CDCl3): δ 7.43 (dd, J=2.7, 9.5, 1H), 7.31 (dd, J=0.6, 2.5, 1H), 6.66 (dd, J=0.6, 9.5, 1H). MS (M+H): 241.1.
row,condition of compound after storage,SMILES
1,decomposed,"[2H]c1c([2H])c(-n2cc(C([2H])([2H])O)ccc2=O)c([2H])c([2H])c1F [Compound 139, 1-(4-Fluorophenyl-d4)-5-(hydroxy(methyl-d2))pyridin-2(1H)-one]"
2,decomposed,"[2H]c1c([2H])c(-n2cc(C([2H])([2H])O)ccc2=O)c([2H])c([2H])c1Cl [Compound 161, 1-(4-Chlorophenyl-d4)-5-(hydroxy(methyl-d2))-pyridin-2(1H)-one]"
3,decomposed,"[2H]c1c([2H])c(-n2cc(C([2H])([2H])O)ccc2=O)c([2H])c([2H])c1OC([2H])([2H])[2H] [Compound 156, 5-(Hydroxyl(methyl-d2))-1-(4-(methoxy-d3)phenyl-d4)pyridin-2(1H)-one]"
